Experimental data as given in ChEMBL document CHEMBL4476873, “Substituted urea depsipeptide analogs as activators of the clpp endopeptidase” (2018).
≈ marks a conversion by molar mass, not a printed value.

Experiments:
Staphylococcus aureus [1] = assay: Antimicrobial activity against Staphylococcus aureus ATCC 29213 incubated overnight under aerobic condition by microbroth dilution method; type: functional
Staphylococcus aureus [2] = assay: Antimicrobial activity against Staphylococcus aureus USA300 incubated overnight under aerobic condition by microbroth dilution method; type: functional
Staphylococcus aureus [3] = assay: Antimicrobial activity against Staphylococcus aureus USA300 deficient in ClpP incubated overnight under aerobic condition by microbroth dilution method; type: functional
Staphylococcus aureus [4] = assay: Antimicrobial activity against Staphylococcus aureus NRS70 incubated overnight under aerobic condition by microbroth dilution method; type: functional
Streptococcus pyogenes = assay: Antimicrobial activity against Streptococcus pyogenes ATCC 700294 incubated overnight under aerobic condition by microbroth dilution method; type: functional
Vero = assay: Cytotoxicity in African green monkey Vero cells assessed as reduction in cell viability incubated for 72 hrs by cell-titer-Glo luminescent cell viability assay; type: cell-based; conditions: Chlorocebus sabaeus
[5] = target: T1, ATP-dependent Clp protease proteolytic subunit (Staphylococcus aureus (strain NCTC 8325), UniProt Q2G036); assay: Activation of Staphylococcus aureus ClpP using BODIPY-FL-casein as substrate incubated for 30 mins by Enz-Check protease assay
T1 sequence (Q2G036 whole entry): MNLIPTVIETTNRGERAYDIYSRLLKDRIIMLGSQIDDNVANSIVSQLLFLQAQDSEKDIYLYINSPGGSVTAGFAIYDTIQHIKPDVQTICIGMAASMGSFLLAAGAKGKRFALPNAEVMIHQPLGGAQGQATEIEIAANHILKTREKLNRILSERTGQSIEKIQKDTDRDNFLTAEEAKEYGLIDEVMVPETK

Streptococcus pneumoniae = assay: Antimicrobial activity against Streptococcus pneumoniae R6 incubated overnight under aerobic condition by microbroth dilution method; type: functional
[6] = target: T1, ATP-dependent Clp protease proteolytic subunit; assay: Displacement of ADEP2591 from Staphylococcus aureus ClpP expressed in Escherichia coli BL21 (DE3) incubated for 120 mins by fluorescence polarization assay

MIC (Staphylococcus aureus [1]) | MIC (Staphylococcus aureus [2]) | MIC (Staphylococcus aureus [3]) | SMILES | other results
0.05 µM (≈ 0.0439 µg/mL) | 0.05 µM (≈ 0.0439 µg/mL) |  | C[C@@H]1C[C@H]2C(=O)O[C@@H](C)[C@H](NC(=O)[C@H](Cc3cc(F)cc(F)c3)NC(=O)Nc3ccc(OC(F)(F)F)cc3)C(=O)N3CCC[C@H]3C(=O)N3CCCC[C@H]3C(=O)N[C@@H](C)C(=O)N2C1 | 
 |  | > 200 µM | Cc1ccc(NC(=O)N[C@@H](Cc2ccccc2)C(=O)N[C@H]2COC(=O)[C@@H]3C[C@H](C)CN3C(=O)[C@H](C)NC(=O)[C@@H]3CCCCN3C(=O)[C@@H]3CCCN3C2=O)cc1 | 
 |  | > 200 µM | Cc1ccc(NC(=O)N[C@@H](Cc2cc(F)cc(F)c2)C(=O)N[C@H]2COC(=O)[C@@H]3C[C@H](F)CN3C(=O)[C@H](C)NC(=O)[C@@H]3CCCCN3C(=O)[C@@H]3CCCN3C2=O)cc1 | 
3.1 µM (≈ 2.55 µg/mL) | 3.1 µM (≈ 2.55 µg/mL) |  | C[C@@H]1NC(=O)[C@@H]2CCCCN2C(=O)[C@@H]2CCCN2C(=O)[C@@H](NC(=O)[C@H](Cc2cc(F)cc(F)c2)NC(=O)Nc2ccc3c(c2)OCO3)[C@H](C)OC(=O)[C@@H]2CCCN2C1=O | MIC (Staphylococcus aureus [4]): 3.1 µM (≈ 2.55 µg/mL); MIC (Streptococcus pyogenes): < 0.1 µM
 |  | 100 µM (≈ 80.8 µg/mL) | Cc1ccc(NC(=O)N[C@@H](Cc2cc(F)cc(F)c2)C(=O)N[C@H]2COC(=O)[C@@H]3CC(C)(C)CN3C(=O)[C@H](C)NC(=O)[C@@H]3CCCCN3C(=O)[C@@H]3CCCN3C2=O)cc1 | 
0.8 µM (≈ 0.67 µg/mL) | 0.8 µM (≈ 0.67 µg/mL) |  | C[C@H]1C[C@H]2C(=O)O[C@@H](C)[C@H](NC(=O)[C@H](Cc3cc(F)cc(F)c3)NC(=O)Nc3ccc4c(c3)OCO4)C(=O)N3CCC[C@H]3C(=O)N3CCCC[C@H]3C(=O)N[C@@H](C)C(=O)N2C1 | 
0.2 µM (≈ 0.156 µg/mL) | 0.2 µM (≈ 0.156 µg/mL) | 100 µM (≈ 78.2 µg/mL) | CCc1ccc(NC(=O)N[C@@H](Cc2cc(F)cc(F)c2)C(=O)N[C@@H]2C(=O)N3CCC[C@H]3C(=O)N(C)[C@@H](C)C(=O)N[C@@H](C)C(=O)N3CCC[C@H]3C(=O)O[C@H]2C)cc1 | MIC (Staphylococcus aureus [4]): 0.2 µM (≈ 0.156 µg/mL)
 |  | 100 µM (≈ 80.8 µg/mL) | Cc1ccc(NC(=O)N[C@@H](Cc2cc(F)cc(F)c2)C(=O)N[C@@H]2C(=O)N3CCC[C@H]3C(=O)N3CCCC[C@H]3C(=O)N[C@@H](C)C(=O)N3C[C@@H](C)C[C@H]3C(=O)O[C@H]2C)cc1 | MIC (Streptococcus pyogenes): 0.4 µM (≈ 0.323 µg/mL)
0.2 µM (≈ 0.168 µg/mL) | 0.2 µM (≈ 0.168 µg/mL) | 100 µM (≈ 83.8 µg/mL) | C[C@@H]1NC(=O)[C@H](C)N(C)C(=O)[C@@H]2CCCN2C(=O)[C@@H](NC(=O)[C@H](Cc2cc(F)cc(F)c2)NC(=O)Nc2ccc(OC(F)(F)F)cc2)[C@H](C)OC(=O)[C@@H]2CCCN2C1=O | MIC (Staphylococcus aureus [4]): 0.2 µM (≈ 0.168 µg/mL)
 |  |  | C[C@H]1C[C@H]2C(=O)O[C@@H](C)[C@H](NC(=O)[C@H](Cc3cc(F)cc(F)c3)NC(=O)Nc3ccc(OC(F)(F)F)cc3)C(=O)N3CCC[C@H]3C(=O)N(C)[C@@H]([C@H](C)O)C(=O)N[C@@H](C)C(=O)N2C1 | IC50 (Vero): 25.4 µM
 |  |  | C[C@@H]1C[C@H]2C(=O)OC[C@H](NC(=O)[C@H](Cc3ccccc3)NC(=O)Nc3ccc(OC(F)(F)F)cc3)C(=O)N3CCC[C@H]3C(=O)N3CCCC[C@H]3C(=O)N[C@@H](C)C(=O)N2C1 | MIC (Streptococcus pyogenes): 0.1 µM (≈ 0.0828 µg/mL)
 |  |  | C[C@@H]1C[C@H]2C(=O)O[C@@H](C)[C@H](NC(=O)[C@H](Cc3cc(F)cc(F)c3)NC(=O)Nc3ccc(OC(F)(F)F)cc3)C(=O)N3CCC[C@H]3C(=O)N(C)[C@@H]([C@H](C)O)C(=O)N[C@@H](C)C(=O)N2C1 | IC50 [6]: 7.53 µM; IC50 (Vero): 23.9 µM
0.6 µM (≈ 0.463 µg/mL) |  |  | CCc1cccc(NC(=O)N[C@@H](Cc2ccccc2)C(=O)N[C@H]2COC(=O)[C@@H]3C[C@@H](C)CN3C(=O)[C@H](C)NC(=O)[C@@H]3CCCCN3C(=O)[C@@H]3CCCN3C2=O)c1 | MIC (Staphylococcus aureus [4]): 0.6 µM (≈ 0.463 µg/mL)
3.1 µM (≈ 2.55 µg/mL) | 3.1 µM (≈ 2.55 µg/mL) |  | C[C@H]1C[C@H]2C(=O)OC[C@H](NC(=O)[C@H](Cc3cc(F)cc(F)c3)NC(=O)Nc3ccc4c(c3)OCO4)C(=O)N3CCC[C@H]3C(=O)N3CCCC[C@H]3C(=O)N[C@@H](C)C(=O)N2C1 | 

SMILES | MIC (Staphylococcus aureus [1]) | MIC (Staphylococcus aureus [2]) | MIC (Staphylococcus aureus [3]) | other results
Cc1ccc(NC(=O)N[C@@H](Cc2cc(F)cc(F)c2)C(=O)N[C@@H]2C(=O)N3C[C@H](O)C[C@H]3C(=O)N(C)[C@@H](C)C(=O)N[C@@H](C)C(=O)N3C[C@@H](C)C[C@H]3C(=O)O[C@H]2C)cc1 |  |  | > 200 µM | IC50 (Vero): > 100 µM; EC50 [5]: 0.37 µM
Cc1ccc(NC(=O)N[C@@H](Cc2cc(F)cc(F)c2)C(=O)N[C@@H]2C(=O)N3CCC[C@H]3C(=O)N3CCCC[C@H]3C(=O)N[C@@H](C)C(=O)N3C[C@H](C)C[C@H]3C(=O)O[C@H]2C)cc1 | 0.05 µM (≈ 0.0404 µg/mL) | 0.05 µM (≈ 0.0404 µg/mL) | 100 µM (≈ 80.8 µg/mL) | IC50 (Vero): 40 µM; MIC (Streptococcus pyogenes): 0.2 µM (≈ 0.162 µg/mL); MIC (Streptococcus pneumoniae): 0.05 µM (≈ 0.0404 µg/mL)
